Patent US11351173B2, “Substituted pyrrolo[1,2-a]pyrimidines and their use in the treatment of medical disorders” (Bial—R&D Investments, S.A., priority 2014, dated 2022)
≈ marks a conversion by molar mass, not a printed value.

Key:
[1] = target: T1, glucocerebrosidase (Gcase) (Homo sapiens, UniProt P04062); test: Glucocerebrosidase (Gcase) activation assay, 4-methylumbelliferyl-beta-D-glucopyranoside substrate, fluorescence readout; type: biochemical; settings: for activation at 0.1 µM: read-out: Percent Gcase Activation, 0.1 μM Test Compound; for activation at 1 µM / Percent Gcase Activation, 1 μM Test Compound: test compound at 1.0 μM; for activation at 1 µM: read-out: Percent Gcase Activation, 1 μM Test Compound
T1 construct: micellar solution containing 10 nM GCase and 100 nM saposin C
T1 sequence (P04062 40-536): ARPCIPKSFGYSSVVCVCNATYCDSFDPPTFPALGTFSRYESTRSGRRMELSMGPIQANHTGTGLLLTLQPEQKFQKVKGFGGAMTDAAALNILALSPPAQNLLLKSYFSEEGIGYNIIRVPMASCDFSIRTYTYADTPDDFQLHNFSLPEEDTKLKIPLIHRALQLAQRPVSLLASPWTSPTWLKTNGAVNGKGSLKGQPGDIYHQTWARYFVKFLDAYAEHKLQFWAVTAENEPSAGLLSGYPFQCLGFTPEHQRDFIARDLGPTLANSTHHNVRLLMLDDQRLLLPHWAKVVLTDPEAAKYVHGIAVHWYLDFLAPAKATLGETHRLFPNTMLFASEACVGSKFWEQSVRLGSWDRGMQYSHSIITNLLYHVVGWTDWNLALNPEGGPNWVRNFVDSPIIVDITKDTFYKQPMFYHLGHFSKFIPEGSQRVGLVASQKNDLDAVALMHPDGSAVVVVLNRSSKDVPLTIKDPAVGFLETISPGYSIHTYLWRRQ
How it was run: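 Readout is endpoint fluorescence (ex 365, em 440 nm) after glycine pH 12.5 stop of a 15-min room-temperature reaction. Enzyme mix: GCase 10 nM plus saposin C 100 nM in 0.37 mol % PS/0.32 mM triton micelles, pH 4.7, compound pre-incubated 30 min; substrate solution 2 mM before 1:1 mixing. Tested at 1.0/0.1 μM, then 3-fold, 8-point series up to 5 μM.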

[2] = Compound solubility in water; settings: in water; for solubility: water, Compound Solubility in Water

Row | Compound | activation at 0.1 µM ([1]; test compound at 0.1 μM) | activation at 1 µM [1] | solubility [2] | Percent Gcase Activation, 0.1 μM Test Compound ([1]; test compound at 0.1 μM) | Percent Gcase Activation, 1 μM Test Compound [1] | Compound Solubility in Water [2]
1 | Cc1cc(C)n2ccc(C(=O)NC3CCOc4ccc(-c5ncco5)cc43)c2n1 (centres unmarked) [III-207] | < 10% | 30 to 60% | 1 µg/mL (≈ 2.57 µM) |  |  | 
2 | C#CCCCCO[C@H]1CC[C@H](NC(=O)c2ccn3c(C)cc(C)nc23)CC1 [III-208] | > 20% | > 60% | 0.8 µg/mL (≈ 2.18 µM) |  |  | 
3 | Cc1cc(C)n2ccc(C(=O)NC3CCCc4ccc(C#N)cc43)c2n1 (centres unmarked) [III-209] | 10 to 20% | > 60% | 2.3 µg/mL (≈ 6.68 µM) |  |  | 
4 | Cc1cc(C)n2ccc(C(=O)NC3COCc4ccccc43)c2n1 (centres unmarked) [III-210] | 10 to 20% | > 60% | 3.3 µg/mL (≈ 10.3 µM) |  |  | 
5 | Cc1cc(C)n2ccc(C(=O)NC3CCOc4ccccc43)c2n1 (centres unmarked) [III-211] | 10 to 20% | > 60% | 3.8 µg/mL (≈ 11.8 µM) |  |  | 
6 | COC1CCC(NC(=O)c2ccn3c(C)cc(C)nc23)c2ccccc21 (centres unmarked) [III-212] | 10 to 20% | > 60% | 13.6 µg/mL (≈ 38.9 µM) |  |  | 
7 | C#Cc1ccc(NC(=O)c2ccn3c(C)cc(C)nc23)c(CO)c1 [III-213] | < 10% | < 30% | 0.7 µg/mL (≈ 2.19 µM) |  |  | 
8 | Cc1cc(C)n2ccc(C(=O)Nc3ccc(Cl)c(-c4cnco4)c3)c2n1 [III-214] | > 20% | > 60% | 0.01 µg/mL (≈ 0.0273 µM) |  |  | 
9 | Cc1cc(C)n2ccc(C(=O)NC3Cc4ccccc4C3)c2n1 [III-215] | 10 to 20% | > 60% | 0.3 µg/mL (≈ 0.982 µM) |  |  | 
10 | Cc1cc(C)n2ccc(C(=O)NC3CCc4ccccc43)c2n1 (centres unmarked) [III-216] | > 20% | > 60% | 1.8 µg/mL (≈ 5.89 µM) |  |  | 
11 | Cc1cc(C)n2ccc(C(=O)N[C@H]3CCc4ccccc43)c2n1 [III-217] | > 20% | > 60% | 0.2 µg/mL (≈ 0.655 µM) |  |  | 
12 | Cc1cc(C)n2ccc(C(=O)N[C@@H]3CCc4ccccc43)c2n1 [III-218] | > 20% | > 60% | 0.2 µg/mL (≈ 0.655 µM) |  |  | 
13 | Cc1cc(C)n2ccc(C(=O)Nc3ccc(C4=NCCO4)cc3Cl)c2n1 [III-219] | > 20% | > 60% | 0.9 µg/mL (≈ 2.44 µM) |  |  | 
14 | Cc1cc(C)n2ccc(C(=O)Nc3cccc4c3CCC4)c2n1 [III-220] | > 20% | > 60% | 0.2 µg/mL (≈ 0.655 µM) |  |  | 
15 | Cc1cc(C)n2ccc(C(=O)Nc3ccc4c(c3)C(Oc3nnc(C)o3)CC4)c2n1 (centres unmarked) [III-221] | < 10% | 30 to 60% | 0.1 µg/mL (≈ 0.248 µM) |  |  | 
16 | Cc1cc(C)n2ccc(C(=O)Nc3ccc4c(c3)C(O)CC4)c2n1 (centres unmarked) [III-222] | < 10% | < 30% | 0.5 µg/mL (≈ 1.56 µM) |  |  | 
17 | Cc1cc(C)n2ccc(C(=O)Nc3cnc(-c4ncccn4)c(Cl)c3)c2n1 [III-223] | < 10% | < 30% | 3.2 µg/mL (≈ 8.45 µM) |  |  | 
18 | Cc1cc(C)n2ccc(C(=O)NC3CCOc4c(F)cccc43)c2n1 (centres unmarked) [III-224] | > 20% | > 60% | 1.5 µg/mL (≈ 4.42 µM) |  |  | 
19 | Cc1cc(C)n2ccc(C(=O)NC3CCOc4ccc(F)cc43)c2n1 (centres unmarked) [III-225] | > 20% | > 60% | 1.8 µg/mL (≈ 5.3 µM) |  |  | 
20 | Cc1cc(C)n2ccc(C(=O)NC3CCCCc4ccccc43)c2n1 (centres unmarked) [III-226] | > 20% | > 60% | 1.6 µg/mL (≈ 4.8 µM) |  |  | 
21 | Cc1cc(C)n2ccc(C(=O)NC3CCCc4ccncc43)c2n1 (centres unmarked) [III-227] | < 10% | < 30% | 15.7 µg/mL (≈ 49 µM) |  |  | 

Row | Compound | activation at 0.1 µM ([1]; test compound at 0.1 μM) | activation at 1 µM [1] | solubility [2] | Percent Gcase Activation, 0.1 μM Test Compound ([1]; test compound at 0.1 μM) | Percent Gcase Activation, 1 μM Test Compound [1] | Compound Solubility in Water [2]
22 | Cc1cc(C)n2ccc(C(=O)NC3CCc4ccccc4C3)c2n1 (centres unmarked) [III-228] | > 20% | > 60% | 0.9 µg/mL (≈ 2.82 µM) |  |  | 
23 | Cc1cc(C)n2ccc(C(=O)NC3CCC4OCOC4C3)c2n1 (centres unmarked) [III-229] | < 10% | < 30% | 28.5 µg/mL (≈ 90.4 µM) |  |  | 
24 | Cc1cc(C)n2ccc(C(=O)NC3CCCc4ccc(S(C)(=O)=O)cc43)c2n1 (centres unmarked) [III-230] | < 10% | < 30% | 13.8 µg/mL (≈ 34.7 µM) |  |  | 
25 | CCOCCOC1CCC(NC(=O)c2ccn3c(C)cc(C)nc23)c2ccccc21 (centres unmarked) [III-231] | 10 to 20% | > 60% | 20.1 µg/mL (≈ 49.3 µM) |  |  | 
26 | CCOC1(C)CCC(NC(=O)c2ccn3c(C)cc(C)nc23)CC1 (centres unmarked) [III-232] | < 10% | < 30% | 9.4 µg/mL (≈ 28.5 µM) |  |  | 
27 | COc1ccccc1C(C)(C)NC(=O)c1ccn2c(C)cc(C)nc12 [III-233] | > 20% | > 60% | 2.1 µg/mL (≈ 6.22 µM) |  |  | 
28 | CCCCCOC1CCCC(NC(=O)c2ccn3c(C)cc(C)nc23)C1 (centres unmarked) [III-234] | > 20% | > 60% | 1.5 µg/mL (≈ 4.2 µM) |  |  | 
29 | Cc1cc(C)n2ccc(C(=O)NC3CCN(CC(F)(F)F)C3)c2n1 (centres unmarked) [III-235] | < 10% | < 30% | 25.1 µg/mL (≈ 73.7 µM) |  |  | 
30 | CO[C@H]1CC[C@H](C(C)(C)NC(=O)c2ccn3c(C)cc(C)nc23)CC1 [III-236] | 10 to 20% | > 60% | 9.9 µg/mL (≈ 28.8 µM) |  |  | 
31 | CO[C@H]1CC[C@@H](C(C)(C)NC(=O)c2ccn3c(C)cc(C)nc23)CC1 [III-238] | 10 to 20% | > 60% | 1.6 µg/mL (≈ 4.66 µM) |  |  | 
32 | CCCO[C@H]1CC[C@H](CNC(=O)c2ccn3c(C)cc(C)nc23)CC1 [III-240] | 10 to 20% | > 60% | 21.4 µg/mL (≈ 62.3 µM) |  |  | 
33 | CC[C@@H](C)O[C@H]1CC[C@H](NC(=O)c2ccn3c(C)cc(C)nc23)CC1 [III-241] | 10 to 20% | > 60% | 11 µg/mL (≈ 32 µM) |  |  | 
34 | Cc1cc(C)n2ccc(C(=O)NC3Cc4ccc(-c5ncco5)cc4C3)c2n1 (centres unmarked) [III-242] | 10 to 20% | > 60% | 1.3 µg/mL (≈ 3.49 µM) |  |  | 
35 | Cc1cc(C)n2ccc(C(=O)NC3CCC(c4ncco4)CC3)c2n1 (centres unmarked) [III-245] | < 10% | < 30% | 27.7 µg/mL (≈ 81.9 µM) |  |  | 
36 | Cc1cc(C)n2ccc(C(=O)NC3CCC(c4ncco4)CC3)c2n1 (centres unmarked) [III-246] |  |  |  | * (less than 10% Gcase activation) | + (less than 30% Gcase activation) | 20.3 µg/mL
37 | Cc1cc(C)n2ccc(C(=O)NC3CC=C(c4ncco4)CC3)c2n1 (centres unmarked) [III-247] | < 10% | 30 to 60% | 27.1 µg/mL (≈ 80.6 µM) |  |  | 
38 | Cc1cc(C(F)(F)F)nc2c(C(=O)NC3CCC4(CCCCO4)C3)ccn12 (centres unmarked) [III-248] | 10 to 20% | > 60% |  |  |  | 28.2 µg/mL
39 | Cc1cc(C(F)(F)F)nc2c(C(=O)NC3CCC4(CCCCO4)C3)ccn12 (centres unmarked) [III-249] |  |  |  |  | +++ (Gcase activation greater than 60%) | 12.6 µg/mL
40 | Cc1cc(C(F)(F)F)nc2c(C(=O)NC3CCCc4ccccc43)ccn12 (centres unmarked) [III-251] | > 20% | > 60% | 0.2 µg/mL (≈ 0.536 µM) |  |  | 
41 | Cc1cc(C(F)(F)F)nc2c(C(=O)Nc3ccc(-c4cocn4)cc3)ccn12 [III-252] | 10 to 20% | > 60% | 1.8 µg/mL (≈ 4.66 µM) |  |  | 
42 | Cc1cc(C(F)(F)F)n2ccc(C(=O)NC3CCCc4ccccc43)c2n1 (centres unmarked) [III-253] | < 10% | 30 to 60% | 0.6 µg/mL (≈ 1.61 µM) |  |  | 
